Measured values from US20210345603A1, “COMPOSITION INTENDED FOR INCREASING THE VELOCITY OF SPERMS COMPRISING SEROTONIN AS ACTIVE COMPOUND” (YILDIZ TEKNÍK ÜNIÌVERSÍTESÌ, priority 2018, published 2021).

What was measured:
sperm cells = assay: Sperm motility test in Makler counting chamber after incubation in sperm wash medium; assay type: cell-based, human; set-up: unit not given here
Procedure: The first step is to collect the sperm cells and the semen of the infertile men within the range of 28-45 is used. Specimens are obtained after a sexual abstinence for 3-4 days. All semen specimens are collected in sterile containers and left to liquefy at 37° C. for 30 minutes. 10 μl of sample is taken into Makler® counting chamber and the concentrations, motilities, viabilities, morphologies of the sperms and the leukocyte existence are evaluated. According to the motility results, the semen specimen is prepared by being washed with HTF based sperm wash solution containing Hepes buffer by using concentration and gradient methods. Washed and prepared sperms are collected in the sperm wash medium in which certain amounts of (25, 50, 100 and 200 μM) 5-HT was added, and incubated at 25′C in certain periods of time (30, 60, 90 and 120 minutes).
Sperm motility tests are performed with the sperms kept in a serotonin medium, by the measurements in the Makler® counting chamber with 30, 60, 90 and 120 min. intervals. Samples with a sperm concentration of 2×10^6 and 50×10^5 per ml max. are included in the analyses. As to the interactions of serotonin and the excipients, washed sperm cells are taken into the sperm wash mediums containing 5-HT and vitamin D, serotonin, selenium, zinc mineral, vitamin C, vitamin E, vitamin B9, vitamin B12 in certain amounts respectively, and are incubated for certain time intervals in an incubator. The dosage of the compounds is determined by examining the effect of the same on sperm motility, both individually and in combination.

fruit flies = fruit flies incapable of mating, after being fed with serotonin; cited from earlier work

Compound: NCCc1c[nH]c2ccc(O)cc12 [serotonin]
- Change in Average Motility (sperm cells; 25 μM serotonin, 30 min incubation at 25° C.): 82.76
- Change in Average Motility (sperm cells; 25 μM serotonin, 60 min incubation at 25° C.): 86.28
- Change in Average Motility (sperm cells; 25 μM serotonin, 90 min incubation at 25° C.): 81.48
- Change in Average Motility (sperm cells; 25 μM serotonin, 120 min incubation at 25° C.): 81.41
- Change in Average Motility (sperm cells; 50 μM serotonin, 30 min incubation at 25° C.): 80.56
- Change in Average Motility (sperm cells; 50 μM serotonin, 60 min incubation at 25° C.): 81.66
- Change in Average Motility (sperm cells; 50 μM serotonin, 90 min incubation at 25° C.): 86.08
- Change in Average Motility (sperm cells; 50 μM serotonin, 120 min incubation at 25° C.): 80.45
- Change in Average Motility (sperm cells; 100 μM serotonin, 30 min incubation at 25° C.): 83.53
- Change in Average Motility (sperm cells; 100 μM serotonin, 60 min incubation at 25° C.): 80.16
- Change in Average Motility (sperm cells; 100 μM serotonin, 90 min incubation at 25° C.): 83.86
- Change in Average Motility (sperm cells; 100 μM serotonin, 120 min incubation at 25° C.): 80.4
- Change in Average Motility (sperm cells; 200 μM serotonin, 30 min incubation at 25° C.): 82.06
- Change in Average Motility (sperm cells; 200 μM serotonin, 60 min incubation at 25° C.): 86.46
- Change in Average Motility (sperm cells; 200 μM serotonin, 90 min incubation at 25° C.): 86.55
- Change in Average Motility (sperm cells; 200 μM serotonin, 120 min incubation at 25° C.): 82.55
- Mating rate (fruit flies): 25%
